From patent publication US20030004148A1, “Regulation of meiosis” (priority 1994, published 2003)

Key:
[1] = test system: denuded oocytes, DO; assay: Oocyte test, denuded oocytes (DO); format: cell-based, mice; details: HX-medium, 24 hours culture
Description: (§1) Animals: Immature female mice (B6D2-F1, strain C57B1/2J) were kept under controlled lighting (14 hr light, 10 hr dark) and temperature, with food and water ad libitum. When the animals reached a weight of 13-16 grams (which correspond to the age of 20 to 22 days post partum) they were given a single injection (i.p.) of human menopausal gonadotropin (Humegon, Organon, The Netherlands) containing approximately 20 IU FSH and 20 IU LH (Ziebe, S. et al. Hum. Reprod. 8(1993) 385-88). 48 hours later the animals were killed by cervical dislocation.
(§2) Collection and culture of oocytes: The ovaries were removed, placed in HX-medium (se below) and freed of extraneous tissue. The collection- and culture medium consisted of Eagles minimum essential medium (Flow, USA), containing 4 mM hypoxanthine, 3 mg/ml of bovine serum albumin, 0.23 mM sodium pyruvate, 2 mM glutamine, 100 U/ml of penicillin, and […] of streptomycin (all Sigma, USA). This medium is termed HX-medium. The same medium but without HX was used as control medium.
(§3) The antral follicles of the ovaries were punctured under a dissecting microscope using a 27-gauge needle. Cumulus enclosed oocyte (CEO) of uniform size were selected and rinsed three times in fresh HX-medium.
(§4) Oocytes freed from cumulus cells, i.e. denuded oocytes, DO, were obtained by gentle flushing CEO through a fine-bore mouth-controlled pipet. CEO and DO were cultured in 4-well multidishes (Nunclon, Denmark) containing 0.5 ml of HX-medium except the controls which were cultured in control medium. Each well contained 35 to 50 oocytes.
(§5) The cultures were performed at 37° C. and 100% humidity with 5% CO2 in air. The culture time was 24 hours.
(§6) Examination of oocytes: By the end of the culture period the number of oocytes with germinal vesicle (GV) or germinal vesicle breakdown (GVBD) and those with polar body (PB) was counted in an inverted microscope with differential interference contrast equipment. The percentage of oocytes with GVBD per total number of oocytes and the percentage of oocytes with PB per GVBD was calculated. One unit of MIS activity is defined as: [formula]
(§7) and the number of MIS activity units is calculated as: [formula]

[2] = test system: Cumulus enclosed oocyte (CEO); assay: Oocyte test, cumulus enclosed oocytes (CEO); format: cell-based, mice; details: HX-medium, 24 hours culture
Description: as §1, §2, §3, §4, §5, §6, §7

[3] = test system: oocytes of isolated perfused ovaries; assay: GVB in isolated perfused ovaries from immature rats; design: species or system Immature Sprague-Dawley rats; details: for % GVB (oocytes undergoing germinal vesicle breakdown per total oocytes per ovary), mean±sd: perfusion up to 12 h, 7 ovaries
Description: Animals and Experimental Procedure: Immature Sprague-Dawley rats (body weight: 50-55 g) were injected s.c. with 20 IU pregnant mare serum gonadotropin (PMSG). 48 hours later, the rats were anesthetized with a combination of Ketavet/Rompun (105 and 8.3 mg/kg BW, respectively). Heparin sulfate (300 IU) was injected into the tail vein.
Ovaries with connecting vasculature were surgically isolated and perfusions were performed in a recirculating system (Koos RD et al. (1984) Biol Reprod 30:1135-1141) containing approximately 35 ml of perfusion medium (Medium 199 with Earle's salts supplemented with 50 μg/ml gentamycin sulfate, 0.2 IU/ml insulin, and 4% BSA).
The ovaries were initially perfused for approximately 1 hour to allow metabolic stabilization of the tissue. Only the ovarian specimens which maintained a flow rate between 0.8 and 1.5 ml/min at pressure of 80 mmHg during the stabilization period were used in the experiments.
After 1 hour of preperfusion, the effect of 4,4-dimethyl-5^α-cholesta-8,14,24-triene-3^β-ol (FF-MAS), IBMX (iso-butyl-methyl-xanthine), LH (luteinizing hormone), and cholesterol were tested by dividing the ovarian specimens into control and experimental groups. Additions to the perfusion medium were made as follows:
Prior to addition to the perfusion medium, FF-MAS and cholesterol were diluted in ethanol, and LH and IBMX were diluted in perfusion medium. For the investigation of meiosis, perfusions were continued up to 12 h after addition of the compounds.
At termination of each perfusion ovaries were dissected free from adherent tissue and oocytes isolated under a stereo microscope by manual rupture of the follicles using a pair of 27 gauge needles. Oocytes per ovary were counted and examined using Nomarski differential interference contrast optics.
Oocytes with a germinal vesicle breakdown (GVB) were regarded as undergoing meiotic maturation (Tsafiri et al. (1980) J. Reprod. Fertil. 60:399-402). The % GVB, defined as percentage of oocytes undergoing GVB per total number of oocytes in each ovary was calculated. Each experimental group consisted of 7 perfused ovaries. Data are presented as mean±sd. Statistical differences were calculated by one-way ANOVA followed by Students's t-test. P-values<0.05 indicated a statistically significant higher % GVB in treated groups compared to the control.

`CC(=O)OC1CC[C@]2(C)C3=C(CCC2C1(C)C)C1=CC[C@H]([C@H](C)CCCC(C)C)[C@@]1(C)CC3` (some centres unmarked) showed a melting point of 120 to 125 °C.
With `CC(C)=CCC[C@@H](C)[C@H]1CC[C@H]2C3=C(CC[C@]12C)[C@@]1(C)CC[C@H](O)C(C)(C)[C@@H]1CC3` [4,4-Dimethyl-zymosterol, 4,4-dimethyl-^5α-cholesta-8,24-diene-^3β-ol] the “DO, units of MIS activity” value ([1]; 0.002 μg/ml) was 0.9 units of MIS activity, the “DO, units of MIS activity” value ([1]; 0.02 μg/ml) was 1.5 units of MIS activity and the “DO, units of MIS activity” value ([1]; 0.2 μg/ml) was 0.6 units of MIS activity. For the same compound, the “DO, units of MIS activity” value ([1]; 0.3 μg/ml) was 1.8 units of MIS activity, the “DO, units of MIS activity” value ([1]; 1.2 μg/ml) was 2.7 units of MIS activity and the “CEO, units of MIS activity” value ([2]; 0.002 μg/ml) was 1.0 units of MIS activity. For the same compound, the “CEO, units of MIS activity” value ([2]; 0.02 μg/ml) was 1.3 units of MIS activity, the “CEO, units of MIS activity” value ([2]; 0.2 μg/ml) was 1.3 units of MIS activity and the “CEO, units of MIS activity” value ([2]; 0.3 μg/ml) was 2.7 units of MIS activity. For the same compound, the “CEO, units of MIS activity” value ([2]; 1.2 μg/ml) was 2.9 units of MIS activity.
With `CC(C)CCC[C@@H](C)[C@H]1CC=C2C3=C(CC[C@@]21C)[C@@]1(C)CC[C@H](O)C(C)(C)C1CC3` (stereo partly drawn) [4,4-Dimethylcholesta-8,14-dien-^3β-ol, 4,4-Dimethylcholesta-8,14-Dien-^3β-ol] the “DO, units of MIS activity” value ([1]; 3.0 μg/ml) was 2.25 units of MIS activity and the “CEO, units of MIS activity” value ([2]; 3.0 μg/ml) was 0 units of MIS activity.
With `CC(C)=CCC[C@@H](C)[C@H]1CC[C@H]2C3=C(CC[C@]12C)[C@@]1(C)CC[C@H](O)[C@H](C)[C@@H]1CC3` [^4β-Methylzymosterol, 4^β-Methylzymosterol] the “DO, units of MIS activity” value ([1]; 0.13 μg/ml) was 0.8 units of MIS activity, the “DO, units of MIS activity” value ([1]; 3.9 μg/ml) was 6.2 units of MIS activity and the “CEO, units of MIS activity” value ([2]; 0.13 μg/ml) was 2.4 units of MIS activity. The “CEO, units of MIS activity” value ([2]; 3.9 μg/ml) was 3.5 units of MIS activity.
With `CC(C)CCC[C@@H](C)[C@H]1CC[C@H]2[C@@H]3CC=C4C[C@@H](O)CC[C@]4(C)[C@H]3CC[C@]12C` [cholesterol, reference compound] the “% GVB (oocytes undergoing germinal vesicle breakdown per total oocytes per ovary), mean±sd” value ([3]; 60 μM with 0.2 mM IBMX) was 2.1±1.8%.
In the case of `CC(C)=CCC[C@@H](C)[C@H]1CC=C2C3=C(CC[C@@]21C)[C@@]1(C)CC[C@H](O)C(C)(C)[C@@H]1CC3` [4,4-dimethyl-^5α-cholesta-8,14,24-triene-^3β-ol], the “DO, units of MIS activity” value ([1]; 0.03 μg/ml) is reported as 1.6 units of MIS activity, the “DO, units of MIS activity” value ([1]; 0.3 μg/ml) is reported as 0.6 units of MIS activity and the “CEO, units of MIS activity” value ([2]; 0.03 μg/ml) is reported as 0.5 units of MIS activity. The “CEO, units of MIS activity” value ([2]; 0.3 μg/ml) was 2.3 units of MIS activity, the “% GVB (oocytes undergoing germinal vesicle breakdown per total oocytes per ovary), mean±sd” value ([3]; 30 μM with 0.2 mM IBMX) was 14.6±4.2% and the “% GVB (oocytes undergoing germinal vesicle breakdown per total oocytes per ovary), mean±sd” value ([3]; 60 μM with 0.2 mM IBMX) was 66.9±7.4%. For the same compound, the effective dose ([3]; corresponds to the effective 30-60 μM in perfused rat ovaries) was 12-24 mg/liter bood volume.
With `CC(C)CCC[C@@H](C)[C@H]1CC[C@H]2C3=C(CC[C@]12C)[C@@]1(C)CC[C@H](O)C(C)(C)C1CC3` (stereo partly drawn) [4,4-Dimethylcholest-8-ene-^3β-ol] the “DO, units of MIS activity” value ([1]; 0.03 μg/ml) was 0.8 units of MIS activity and the “CEO, units of MIS activity” value ([2]; 0.03 μg/ml) was 12.8 units of MIS activity.
For `CC(C)=CCC[C@@H](C)[C@H]1CC[C@H]2C3=C(CC[C@]12C)[C@@]1(C)CC[C@H](O)C[C@@H]1CC3` [Zymosterol], the “DO, units of MIS activity” value ([1]; 0.01 μg/ml) was 0.6 units of MIS activity, the “DO, units of MIS activity” value ([1]; 0.1 μg/ml) was 1.2 units of MIS activity and the “CEO, units of MIS activity” value ([2]; 0.001 μg/ml) was 0.2 units of MIS activity. The “CEO, units of MIS activity” value ([2]; 0.01 μg/ml) was 0.4 units of MIS activity and the “CEO, units of MIS activity” value ([2]; 0.1 μg/ml) was 1.1 units of MIS activity.
